Key:
HeLa = test: Neutral red uptake assay on HeLa; format: cell-based; conditions: Homo sapiens, 72 h treatment
Procedure: (§1) Based on the results obtained for the RPTEC cell line, the following concentrations of 4b–d were chosen to be applied to neoplastic cell lines: 0.1, 1, 10, 25, 50, and 100 µM. A172, AGS, CaCo-2, HeLa, and HepG2 cancer cell lines were used to perform a neutral red uptake assay. The obtained results were compared with a negative control (cell lines incubated without tested compounds), and half-maximal inhibitory concentration (IC50) values were calculated. Cell lines were plated in 96-well plates at a density of 1 × 10^4 cells/well. After 24 h incubation, which allowed the cells to attach and start to proliferate, the culture media were replaced with 4a–d dissolved in the appropriate medium at concentrations of 1, 10, 50, 100, 150 and 200 µM. […] Negative (1% DMSO in medium) and positive (1 µM staurosporine) controls were also included. Plates were incubated at 37 °C for 24, 48, and 72 h before the neutral red uptake assay. The neutral red uptake assay was performed as described by Repetto et al.. Briefly, the medium from all wells was discarded, the attached cells were washed with 100 µL PBS, and then 100 µL of neutral red working solution in medium (40 µg/mL) was added to each well. The neutral red solution was incubated overnight in the same conditions as the cells and centrifuged before being added to the cells. The plates were incubated for at least 2 h at 37 °C, 5% CO2, in a humidified atmosphere. Next, the neutral red medium was removed, and the cells were washed with 100 µL PBS. A 100 µL quantity of destain solution consisting of 50% ethanol, 1% glacial acetic acid, and deionized water was added to each well. Plates were incubated for 30 min with constant shaking on a horizontal shaker at 37 °C. Absorption was measured at 540 nm excitation. The cells’ viability was calculated by comparing results from experimental sets with negative controls according to the formula: % viability=ODtest substance−ODblind/ODnegative control−ODblind×100

HepG2 = test: Neutral red uptake assay on HepG2; format: cell-based; conditions: Homo sapiens; HepG2, 72 h treatment
Procedure: as §1

AGS [1] = test: Microscopic observations, Hoechst 33342 stain, AGS; format: cell-based, human; conditions: at IC50, 24, 48 and 72 h
Procedure: (§2) In order to obtain information about cells and nuclei morphology, fluorescence microscopy was used. Briefly, after the incubation of A172 and AGS with compound 4b (at three time periods, namely 24, 48, and 72 h) cells were stained with Hoechst 33342 dye, which binds to DNA. Phase-contrast observations were also performed. […] Also, the cell membrane should be intact with a visible halo around the cells. In necrotic cells, the nuclei edges tend to be less clearly defined, and Hoechst 33342 results in a decreased fluorescence signal. This effect can be seen in a1,2 (A172) and b1,2 (AGS). […] To visualize morphological changes which occurred in the treated cells, microscopic observations were conducted using Hoechst 33342 stain. It is a blue fluorescent stain which allows observations of nuclei in eukaryotic cells. Also observations in bright fields were performed. Cells were stained according to the manufacturer’s protocol. Briefly, cells were plated in 12-well plates at a density of 1 × 10^5 cells/well and were incubated for 24 h at 37 °C, 5% CO2 in a humidified atmosphere. Next, cells were treated with 4b at an IC50 and further incubated for 24, 48, and 72 h. For microscopic observations cells were collected, washed with PBS and stained for 15 min with 1 µg/mL Hoechst 33342 dye. […]

AGS [2] = test: Neutral red uptake assay on AGS; format: cell-based, human; conditions: 72 h treatment
Procedure: as §1

A172 = test: Microscopic observations, Hoechst 33342 stain, A172; format: cell-based, human; conditions: A172, at IC50, 24, 48 and 72 h
Procedure: as §2

AGS cells = test: Flow cytometry annexin V/PI staining, cell death pathway, AGS; format: cell-based, human; conditions: at IC50, 6, 18 and 24 h
Procedure: To confirm the cell death pathway, another approach to flow cytometry was used. […] Annexin V is a specific PS-binding protein, and thus it is used to detect apoptotic cells. Very few events could be observed in the first and the second quadrant, which represent apoptotic cells. Most events occurred in the third and the fourth quadrant, where unstained and necrotic cells were located. The 24 h measurements after both flow cytometry approaches were consistent with each other. […] Two approaches for flow cytometry were used—FDA/PI staining to determine cell viability and annexin V/PI staining for cell death pathway determination. For cell death pathway determination, cells were plated in 6-well plates at a density of 3 × 10^5 cells/well. […] After 6, 18, and 24 h incubation, adhered and floating cells were harvested, centrifuged at 1600 rpm, and washed with PBS. Next, the cells were washed with 1× annexin-binding buffer, and after centrifugation, cells from each test set were suspended in 100 µL of 1× annexin-binding buffer. To each tube, 5 µL of Alexa Fluor 488-annexin V stain was added, and the cells were incubated in the dark. After 15 min incubation, the cells were centrifuged at 1600 rpm to remove the dye, then suspended in 1 mL of 1× binding buffer and kept on ice. Prior to analysis, cells were stained for 2 min with 1 µM PI. […]

Cc1nc(-c2ccccc2)nc(Nc2ccc(F)cc2)c1C=Nc1cccc(Cl)c1 [compound 4b, 5-{[(3-chlorophenyl)imino]methyl}-N-(4-fluorophenyl)-6-methyl-2-phenylpyrimidin-4-amine]
IC50 (HeLa): > 100 µM
IC50 (HepG2): > 100 µM
cell and nuclei morphology (AGS [1]): leads to necrosis
IC50 (AGS [2]): 32.2 µM
IC50 (AGS [2]; Homo sapiens, 72 h): 32.2 µM
cell and nuclei morphology (A172): leads to necrosis
cell death pathway (AGS cells): irreversible cell injury and necrosis

From article PMC10889512, “Pyrimidine Schiff Bases: Synthesis, Structural Characterization and Recent Studies on Biological Activities” (International Journal of Molecular Sciences, 2024)
